Experimental data taken from ChEMBL document CHEMBL1201862, “PubChem BioAssay data set” (2004).
Activity calls are given as the source filed them.

Assays:
[1] = target: Sphingosine 1-phosphate receptor 2 (Homo sapiens, UniProt O95136); experiment: Dose Response Cell Based Assay for Agonists of the S1P2 Receptor of Purchased Analogues. [Related pubchem assays: 729, 843, 854, 736 ]; format: functional
HeLa = experiment: HeLa cell cytotoxicity, dose response, cytotoxicity control, 24 h, cherry-picked samples (AID 504726); format: functional, cell-based; conditions: Homo sapiens;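 further: potency for cytotoxicity as loss of luminescence signal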
[2] = LGR2 antagonists, dose response, cell-based, HEK293, CRE-luciferase reporter, cherry pick, set 2 (AID 743343); format: functional;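 further: transfected cells were stimulated with diluted bursicon conditioned medium after compound addition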
[3] = target: Luciferin 4-monooxygenase (Photinus pyralis, UniProt P08659); experiment: Counter Screen for Luciferase-based Assay Positives. [Related pubchem assays: 620, 618, 411 ]
Chain of Luciferin 4-monooxygenase (P08659 whole entry): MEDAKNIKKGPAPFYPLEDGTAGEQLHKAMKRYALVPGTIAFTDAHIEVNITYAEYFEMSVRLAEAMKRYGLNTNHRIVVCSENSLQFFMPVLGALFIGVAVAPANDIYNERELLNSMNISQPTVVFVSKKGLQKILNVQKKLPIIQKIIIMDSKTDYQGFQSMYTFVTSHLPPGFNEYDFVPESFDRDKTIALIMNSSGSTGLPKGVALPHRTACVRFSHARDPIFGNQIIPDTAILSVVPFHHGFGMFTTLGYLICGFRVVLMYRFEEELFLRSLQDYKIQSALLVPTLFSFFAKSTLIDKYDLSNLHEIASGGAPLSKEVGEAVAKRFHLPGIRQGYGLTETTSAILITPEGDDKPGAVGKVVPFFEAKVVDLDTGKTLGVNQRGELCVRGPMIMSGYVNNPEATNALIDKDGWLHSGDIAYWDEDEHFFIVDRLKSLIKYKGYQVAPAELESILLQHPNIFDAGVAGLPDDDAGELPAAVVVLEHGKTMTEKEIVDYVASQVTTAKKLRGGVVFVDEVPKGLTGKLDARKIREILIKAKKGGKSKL

[4] = MC4R antagonists, dose response, counter-screen for LGR2 antagonist project, cell-based, plate reader, cherry pick (AID 743444); format: functional;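 further: transfected HEK 293 cells stimulated with alpha-MSH peptide; potency of inhibitors of the alpha-MSH evoked signal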
[5] = inhibitors of SNCA 5'UTR-driven reporter translation, confirmation, H4 neuroglioma cells, luminescence (AID 1988); format: functional, cell-based
[6] = Luminescence Cell-Based Dose Response HTS to Identify Inhibitors of 5'UTR Stem-Loop Driven Prion Protein mRNA Translation in H4 Neuroglioblastoma Cells. [Related pubchem assays: 1827 (Project Summary), 1813 (Primary HTS)]; format: functional
HT-1080 = experiment: cytotoxicity in HT1080 fibrosarcoma cells, cell-based, fluorescence readout (AID 620); format: functional; conditions: Homo sapiens
Estrogen receptor = target: T1, Estrogen receptor (Homo sapiens, UniProt P03372); experiment: ERα–SRC-3 coactivator interaction inhibitors, confirmation, orthogonal assay, biochemical, ELISA, streptavidin-HRP readout (AID 1079)
T1 sequence (P03372 whole entry): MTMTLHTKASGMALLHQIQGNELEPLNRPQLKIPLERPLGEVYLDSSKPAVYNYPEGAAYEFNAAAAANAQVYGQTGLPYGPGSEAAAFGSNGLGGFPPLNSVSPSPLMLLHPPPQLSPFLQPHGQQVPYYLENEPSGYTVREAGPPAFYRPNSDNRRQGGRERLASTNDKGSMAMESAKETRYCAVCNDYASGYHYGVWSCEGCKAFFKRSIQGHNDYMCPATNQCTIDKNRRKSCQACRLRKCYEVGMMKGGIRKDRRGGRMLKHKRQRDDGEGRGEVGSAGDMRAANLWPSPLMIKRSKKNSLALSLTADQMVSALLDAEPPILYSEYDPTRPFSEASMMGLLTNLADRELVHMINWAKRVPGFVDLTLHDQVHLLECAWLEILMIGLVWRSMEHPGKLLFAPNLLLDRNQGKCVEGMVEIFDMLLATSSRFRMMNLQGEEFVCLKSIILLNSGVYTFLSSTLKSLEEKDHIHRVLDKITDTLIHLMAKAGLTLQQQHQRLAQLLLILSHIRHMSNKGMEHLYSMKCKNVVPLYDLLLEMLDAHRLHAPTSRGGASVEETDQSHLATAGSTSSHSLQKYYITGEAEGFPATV

Caspase-6 = Caspase-6 (Homo sapiens, UniProt P55212); experiment: human caspase-6 inhibitors, dose response, biochemical, VEID-R110 fluorescence, cherry-pick (AID 720632)
Chain of Caspase-6 (P55212 24-179 limits assumed): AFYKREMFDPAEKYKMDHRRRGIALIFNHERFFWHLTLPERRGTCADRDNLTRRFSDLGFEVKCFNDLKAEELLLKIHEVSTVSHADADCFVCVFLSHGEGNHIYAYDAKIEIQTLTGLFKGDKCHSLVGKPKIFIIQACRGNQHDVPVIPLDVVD
Chain of Caspase-6 (P55212 194-293 limits assumed): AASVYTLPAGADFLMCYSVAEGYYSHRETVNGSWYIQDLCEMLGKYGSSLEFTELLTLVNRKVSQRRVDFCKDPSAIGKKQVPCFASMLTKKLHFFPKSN

[7] = inhibitors of Bluetongue virus cytopathic effect, confirmation, arbovirus, BSR cells (AID 1250); format: functional;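 further: protection from viral cytopathic effect measured as cell viability by ATP luminescence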
cells = format: functional
[8] = target: Neuropeptide Y receptor type 1 (Homo sapiens, UniProt P25929); experiment: NPY-Y1 receptor antagonist potency, dose response, cell-based (AID 1277); format: functional
Chain of Neuropeptide Y receptor type 1 (P25929 whole entry): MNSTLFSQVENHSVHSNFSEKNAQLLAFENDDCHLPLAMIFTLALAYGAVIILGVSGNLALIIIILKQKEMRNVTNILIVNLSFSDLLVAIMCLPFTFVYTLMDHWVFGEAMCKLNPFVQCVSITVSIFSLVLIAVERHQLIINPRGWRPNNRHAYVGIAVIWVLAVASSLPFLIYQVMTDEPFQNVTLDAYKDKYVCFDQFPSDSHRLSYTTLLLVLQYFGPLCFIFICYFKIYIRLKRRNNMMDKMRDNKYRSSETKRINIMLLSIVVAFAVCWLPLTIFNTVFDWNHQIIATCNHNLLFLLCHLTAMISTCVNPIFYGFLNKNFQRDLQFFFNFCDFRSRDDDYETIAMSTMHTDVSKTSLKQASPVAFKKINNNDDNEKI

[9] = target: Neuropeptide Y receptor type 2 (Homo sapiens, UniProt P49146); experiment: NPY-Y2 antagonist potency, selectivity check, dose response, counter-screen for NPY-Y1 antagonist project, cell-based (AID 1278); format: functional
Chain of Neuropeptide Y receptor type 2 (P49146 whole entry): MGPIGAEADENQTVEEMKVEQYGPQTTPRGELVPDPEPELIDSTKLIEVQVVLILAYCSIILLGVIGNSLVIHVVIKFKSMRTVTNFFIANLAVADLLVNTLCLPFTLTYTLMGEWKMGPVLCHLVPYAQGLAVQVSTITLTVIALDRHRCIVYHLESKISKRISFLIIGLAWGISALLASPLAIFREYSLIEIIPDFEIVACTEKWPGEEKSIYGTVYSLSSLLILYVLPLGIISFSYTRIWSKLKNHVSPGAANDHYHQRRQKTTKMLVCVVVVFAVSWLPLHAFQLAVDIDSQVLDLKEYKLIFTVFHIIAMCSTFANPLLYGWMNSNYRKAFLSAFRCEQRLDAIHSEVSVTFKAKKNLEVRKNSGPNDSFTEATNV

[10] = microbe, parasite or virus in culture; format: functional; conditions: Mycobacterium tuberculosis
[11] = THP-1 cell cytotoxicity, dose response, cytotoxicity control for non-replicating M. tuberculosis project (AID 489025); format: functional
Galanin receptor type 2 = Galanin receptor type 2 (Homo sapiens, UniProt O43603); experiment: Dose Response cell-based high-throughput screening assay to identify antagonists of galanin receptor 2 (GALR2). [Related pubchem assays: 828, 866 ]; format: functional
Chain of Galanin receptor type 2 (O43603 whole entry): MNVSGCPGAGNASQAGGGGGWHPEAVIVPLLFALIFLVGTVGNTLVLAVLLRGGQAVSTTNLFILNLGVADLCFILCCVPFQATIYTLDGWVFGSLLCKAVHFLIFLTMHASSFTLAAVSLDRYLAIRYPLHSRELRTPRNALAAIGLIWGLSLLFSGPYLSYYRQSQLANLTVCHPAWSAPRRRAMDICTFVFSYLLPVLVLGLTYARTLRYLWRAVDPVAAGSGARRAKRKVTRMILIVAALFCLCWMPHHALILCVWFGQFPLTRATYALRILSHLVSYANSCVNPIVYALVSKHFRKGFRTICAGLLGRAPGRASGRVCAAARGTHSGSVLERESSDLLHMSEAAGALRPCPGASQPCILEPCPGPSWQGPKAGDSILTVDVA

[12] = target: T2, Rac GTPase-activating protein 1 (Homo sapiens, UniProt Q9H0H5); experiment: MgcRacGAP GTPase-activating activity inhibitors, confirmation, biochemical, ADP Hunter fluorescence, primary and confirmatory (AID 624330); format: functional
T2 sequence (Q9H0H5 whole entry): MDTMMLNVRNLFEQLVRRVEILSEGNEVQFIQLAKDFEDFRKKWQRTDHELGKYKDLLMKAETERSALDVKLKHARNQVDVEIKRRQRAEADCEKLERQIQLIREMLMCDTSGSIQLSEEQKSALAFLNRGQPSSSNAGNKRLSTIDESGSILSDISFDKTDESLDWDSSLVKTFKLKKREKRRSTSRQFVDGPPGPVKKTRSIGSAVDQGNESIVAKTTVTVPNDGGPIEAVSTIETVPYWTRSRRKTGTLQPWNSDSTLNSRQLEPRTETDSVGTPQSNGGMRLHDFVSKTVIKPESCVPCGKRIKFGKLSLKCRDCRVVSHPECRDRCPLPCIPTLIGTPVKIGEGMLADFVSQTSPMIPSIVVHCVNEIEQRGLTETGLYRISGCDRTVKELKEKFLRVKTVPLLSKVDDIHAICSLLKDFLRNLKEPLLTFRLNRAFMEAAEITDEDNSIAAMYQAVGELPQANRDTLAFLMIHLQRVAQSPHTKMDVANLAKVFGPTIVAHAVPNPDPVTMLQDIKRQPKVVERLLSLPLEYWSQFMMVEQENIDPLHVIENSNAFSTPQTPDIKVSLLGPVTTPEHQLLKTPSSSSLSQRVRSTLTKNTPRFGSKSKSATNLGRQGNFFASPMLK

NADPH oxidase 1 [13] = target: T3, NADPH oxidase 1 (Homo sapiens, UniProt Q9Y5S8); format: functional, cell-based
T3 sequence (Q9Y5S8 whole entry): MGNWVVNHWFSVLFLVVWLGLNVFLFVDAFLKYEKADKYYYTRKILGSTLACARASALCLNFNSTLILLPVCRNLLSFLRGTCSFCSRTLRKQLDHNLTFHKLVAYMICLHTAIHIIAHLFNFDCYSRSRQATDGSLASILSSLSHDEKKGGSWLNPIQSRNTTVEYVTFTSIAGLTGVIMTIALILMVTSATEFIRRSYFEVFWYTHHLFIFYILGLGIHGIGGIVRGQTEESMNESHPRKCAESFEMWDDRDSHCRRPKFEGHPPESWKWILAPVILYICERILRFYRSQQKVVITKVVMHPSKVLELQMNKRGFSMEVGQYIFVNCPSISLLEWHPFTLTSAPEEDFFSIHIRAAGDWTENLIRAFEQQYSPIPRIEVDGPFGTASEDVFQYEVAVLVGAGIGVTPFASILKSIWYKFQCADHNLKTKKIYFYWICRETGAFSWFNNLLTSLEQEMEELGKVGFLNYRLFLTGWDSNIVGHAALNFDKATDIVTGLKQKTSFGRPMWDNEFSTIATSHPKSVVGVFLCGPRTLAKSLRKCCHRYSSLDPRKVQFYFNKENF

Estrogen receptor beta = Estrogen receptor beta (Homo sapiens, UniProt Q92731); experiment: ERβ–SRC-3 coactivator interaction inhibitors, confirmation, orthogonal assay, biochemical, ELISA, streptavidin-HRP readout (AID 1060)
NADPH oxidase 1 [14] = target: T3, NADPH oxidase 1; experiment: Luminescence-based cell-based dose response assay to identify inhibitors of NADPH oxidase 1 (NOX1).; format: functional
Vero = experiment: cells; format: functional; conditions: Chlorocebus sabaeus
[15] = A Cell Based Secondary Assay To Explore Cytotoxicity of Compounds that Sensitize Mycobacterium Tuberculosis to Beta-Lactam Antibiotics.; format: functional
[16] = A cytotoxicity screen of small molecule inhibitors of the PhoP region in Salmonella typhi identified in the primary screen. [Related pubchem assays: 1850, 1864, 1985 ]; format: functional
[17] = target: Acyl-homoserine lactone acylase PvdQ (Pseudomonas aeruginosa (strain LESB58), UniProt Q9I194); experiment: P. aeruginosa PvdQ acylase inhibitors, dose response, biochemical, fluorescence, plate reader and imaging, cherry-picks (AID 493231)
Chain of Acyl-homoserine lactone acylase PvdQ (Q9I194 24-193 limits assumed): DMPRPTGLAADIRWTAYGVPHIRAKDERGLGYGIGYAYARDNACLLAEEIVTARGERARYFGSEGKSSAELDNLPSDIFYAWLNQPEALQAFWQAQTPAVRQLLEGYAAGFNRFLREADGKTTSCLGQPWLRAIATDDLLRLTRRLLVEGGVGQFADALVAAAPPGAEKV
Chain of Acyl-homoserine lactone acylase PvdQ (Q9I194 217-762 limits assumed): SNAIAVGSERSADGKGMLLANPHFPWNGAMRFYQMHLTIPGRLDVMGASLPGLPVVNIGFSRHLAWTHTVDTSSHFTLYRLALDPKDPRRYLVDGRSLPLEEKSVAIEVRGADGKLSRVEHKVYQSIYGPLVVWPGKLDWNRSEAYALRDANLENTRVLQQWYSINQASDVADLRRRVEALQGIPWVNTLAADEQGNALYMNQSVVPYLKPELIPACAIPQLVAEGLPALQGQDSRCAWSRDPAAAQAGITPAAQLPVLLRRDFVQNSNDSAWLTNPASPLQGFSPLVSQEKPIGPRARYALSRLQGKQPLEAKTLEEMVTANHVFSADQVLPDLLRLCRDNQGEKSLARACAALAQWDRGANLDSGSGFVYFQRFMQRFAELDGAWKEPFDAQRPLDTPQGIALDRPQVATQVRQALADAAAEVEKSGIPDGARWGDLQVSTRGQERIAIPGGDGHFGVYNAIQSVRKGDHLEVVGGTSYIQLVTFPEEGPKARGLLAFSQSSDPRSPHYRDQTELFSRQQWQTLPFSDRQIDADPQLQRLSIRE

[18] = target: Eukaryotic translation initiation factor 4H (Homo sapiens, UniProt Q15056); experiment: human eIF4H binding inhibitors, primary screen, translation initiation inhibitor project, biochemical, uHTS, fluorescence polarization (AID 2012)
[19] = target: Polyadenylate-binding protein 1 (Homo sapiens, UniProt P11940); experiment: PABP poly(A) RNA binding inhibitors, primary screen, biochemical, fluorescence polarization, uHTS (AID 2014)
NS3 = NS3 (Hepatitis C virus, UniProt A3EZJ3); experiment: PubChem AID 2173; parameters: species or system Hepacivirus hominis
[20] = target: Serine/threonine-protein phosphatase (Homo sapiens, UniProt Q9BPW0); experiment: Counterscreen for inhibitors of PP1: fluorescence-based biochemical high throughput dose response assay to identify inhibitors of Protein Phosphatase 5 (PP5). [Related pubchem assays: 2034 (Summary (PP5 inhibitors)), 1987 (PP5 inhibitors in singlate), 2235 (PP1 inhibitors in singlate)]
Chain of Serine/threonine-protein phosphatase (Q9BPW0 whole entry): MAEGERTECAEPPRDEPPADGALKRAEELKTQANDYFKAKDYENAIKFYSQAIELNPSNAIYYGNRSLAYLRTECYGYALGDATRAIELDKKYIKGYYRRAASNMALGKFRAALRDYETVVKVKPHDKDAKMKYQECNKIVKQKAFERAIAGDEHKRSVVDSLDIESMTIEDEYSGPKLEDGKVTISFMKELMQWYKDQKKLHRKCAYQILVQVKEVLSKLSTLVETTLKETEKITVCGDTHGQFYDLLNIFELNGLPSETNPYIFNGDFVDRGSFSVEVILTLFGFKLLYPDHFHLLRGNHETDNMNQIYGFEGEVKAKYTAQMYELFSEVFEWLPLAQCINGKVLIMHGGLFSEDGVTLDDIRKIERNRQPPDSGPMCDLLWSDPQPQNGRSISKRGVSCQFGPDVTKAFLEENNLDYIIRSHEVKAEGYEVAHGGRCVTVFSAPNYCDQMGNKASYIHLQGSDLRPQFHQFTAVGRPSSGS

[21] = target: Serine/threonine-protein phosphatase PP1-alpha catalytic subunit (Homo sapiens, UniProt P62136); experiment: PP1 phosphatase inhibitors, dose response, biochemical, fluorescence (AID 2403);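 further: phosphatase turnover of OMFP into fluorescent 3-O-methylfluorescein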
Chain of Serine/threonine-protein phosphatase PP1-alpha catalytic subunit (P62136 whole entry): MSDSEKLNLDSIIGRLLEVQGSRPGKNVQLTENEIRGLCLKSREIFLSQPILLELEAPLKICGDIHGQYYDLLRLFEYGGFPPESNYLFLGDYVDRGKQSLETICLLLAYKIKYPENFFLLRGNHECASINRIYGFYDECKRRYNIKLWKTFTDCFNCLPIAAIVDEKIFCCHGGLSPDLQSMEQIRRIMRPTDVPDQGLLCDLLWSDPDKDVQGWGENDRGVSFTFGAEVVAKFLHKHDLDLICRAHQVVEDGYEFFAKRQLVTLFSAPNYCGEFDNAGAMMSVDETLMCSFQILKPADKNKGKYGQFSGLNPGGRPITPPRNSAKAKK

[22] = target: Signal transducer and activator of transcription 3 (Homo sapiens, UniProt P40763); experiment: STAT3 activators, late-stage profile, late-stage follow-up, cell-based, STAT1 reporter, BCL3 qPCR, cytotoxicity, panel member STAT3 Activation (AID 2049)
Chain of Signal transducer and activator of transcription 3 (P40763 whole entry): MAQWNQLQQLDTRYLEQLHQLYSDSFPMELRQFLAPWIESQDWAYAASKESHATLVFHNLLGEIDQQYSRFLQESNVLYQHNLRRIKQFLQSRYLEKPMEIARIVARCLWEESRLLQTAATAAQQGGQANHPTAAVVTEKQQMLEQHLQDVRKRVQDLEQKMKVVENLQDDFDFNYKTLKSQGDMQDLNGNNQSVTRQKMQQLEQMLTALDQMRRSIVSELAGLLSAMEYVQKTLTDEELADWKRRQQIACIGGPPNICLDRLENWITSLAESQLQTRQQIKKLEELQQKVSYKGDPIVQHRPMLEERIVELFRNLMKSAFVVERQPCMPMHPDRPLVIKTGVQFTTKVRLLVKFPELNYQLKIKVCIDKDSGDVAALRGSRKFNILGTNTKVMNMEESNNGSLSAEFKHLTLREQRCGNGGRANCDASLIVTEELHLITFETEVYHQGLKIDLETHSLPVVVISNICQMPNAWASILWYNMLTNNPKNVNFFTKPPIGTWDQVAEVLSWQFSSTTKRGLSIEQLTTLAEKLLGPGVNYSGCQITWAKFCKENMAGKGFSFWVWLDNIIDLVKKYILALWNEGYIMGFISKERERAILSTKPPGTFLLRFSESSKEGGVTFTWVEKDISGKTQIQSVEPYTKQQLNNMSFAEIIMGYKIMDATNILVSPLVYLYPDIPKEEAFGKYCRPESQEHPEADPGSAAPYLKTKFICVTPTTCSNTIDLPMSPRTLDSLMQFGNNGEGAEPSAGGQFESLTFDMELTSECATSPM

Chain of Sphingosine 1-phosphate receptor 2 (O95136 whole entry): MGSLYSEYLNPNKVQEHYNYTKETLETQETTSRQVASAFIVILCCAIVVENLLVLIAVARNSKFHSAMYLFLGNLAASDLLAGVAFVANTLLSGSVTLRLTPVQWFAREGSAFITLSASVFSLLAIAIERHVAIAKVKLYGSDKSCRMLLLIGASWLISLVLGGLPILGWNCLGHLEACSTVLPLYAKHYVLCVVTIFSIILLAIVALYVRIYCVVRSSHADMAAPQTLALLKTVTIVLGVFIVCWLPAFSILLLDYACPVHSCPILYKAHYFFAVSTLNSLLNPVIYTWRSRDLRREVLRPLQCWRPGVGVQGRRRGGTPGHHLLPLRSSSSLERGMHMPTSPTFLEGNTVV

## Cc1sc2ncn(CC(=O)c3cc(C)n(Cc4ccccc4)c3C)c(=O)c2c1C
[1]
  EC50: > 30 µM (not active)

## CCCN(CCC)C(=O)C1c2ccccc2Oc2ccccc21
HeLa
  AC50: 81.4 µM (active)

## O=C(Nc1nc2c(s1)CCCC2)C1COc2ccccc2O1 (stereo unspecified)
[2]
  AC50: 6.29 µM (active)
[3]
  EC50: < 0.2 µM (active)
[4]
  AC50: 12.1 µM (active)
[5]
  EC50: 5.78 µM (active)
[6]
  EC50: 6.51 µM (active)
HT-1080
  EC50: > 50 µM (not active)

## O=C(CCCn1c(=S)[nH]c2ccccc2c1=O)N1CCN(c2cccc(O)c2)CC1
Estrogen receptor
  IC50: 1.62 µM (not active)

## O=C(O)C1CCCCC1C(=O)Nc1nc(-c2ccc(Cl)s2)cs1 (stereo unspecified)
Caspase-6
  AC50: 32.9 µM (active)
[7]
  IC50: 38.5 µM (active)

## Cc1ccc(-n2cc(CNCCn3nc(C)cc3C)c(-c3ccc(F)cc3)n2)cc1
cells
  IC50: 4.38 µM (active)
[8]
  IC50: 10.6 µM (not active)
[9]
  IC50: > 35 µM (not active)
[10]
  CC50: > 40 µM (active)
[11]
  CC50: 23.5 µM (active)

## O=C(/C=C/c1ccc(Cl)cc1)NC(=S)Nc1ccc(NC(=O)c2ccco2)cc1
Galanin receptor type 2
  IC50: 6.76 µM (active)

## COc1ccc(NC(=O)Nc2ccc(N(C)C)cc2)cc1
[12]
  IC50: 23.5 µM (active)
NADPH oxidase 1 [13]
  IC50: 0.432 µM (active)
Estrogen receptor beta
  IC50: 14.4 µM (not active)
NADPH oxidase 1 [14]
  IC50: 0.156 µM (active)

## Cn1c(=O)c2ccccc2n2c(CCl)nnc12
Vero
  CC50: 18 µM (active)
[15]
  CC50: 30.5 µM (active)

## O=C(Nc1ccc(Cl)cc1)c1cccs1
[16]
  EC50: > 50 µM (active)

## N#CC(c1ccc(Cl)nn1)c1ccc(Cl)cc1Cl (stereo unspecified)
[17]
  AC50: 0.646 µM (active)

## O=C(C[n+]1ccccc1)c1ccc(Cl)cc1
[18]
  IC50: > 100 µM (inactive)
[19]
  IC50: 5.96 µM (active)

## CCCOc1ccc(C2C(C(=O)c3ccc(C)o3)=C(O)C(=O)N2Cc2ccco2)cc1OCC (stereo unspecified)
NS3
  IC50: 5.19 µM (active)

## CCn1c2ccccc2c2cc(NC(=O)COC(=O)c3ccc(NC(=O)CC#N)cc3)ccc21
[20]
  IC50: > 67 µM (not active)
[21]
  IC50: 7.27 µM (active)

## COc1cc(NC(=O)c2cc(C3CC3)on2)ccc1Br
[22]
  EC50: > 5.57 µM (inactive)
